# Where a name gives a salt, the structure may show the parent alone. Read-outs that look alike come from different tables or passages of the source.
# What was measured:
# S. aureus (Oxford) = assay: In vitro antibacterial activity, MIC against S. aureus (Oxford); assay type: cell-based
# E. coli (NCTC 10418) = assay: In vitro antibacterial activity, MIC against E. coli (NCTC 10418); assay type: cell-based
# [1] = Staphylococcus aureus, read-out: MIC
# [2] = Escherichia coli, NCTC10418, E. coli (NCTC 10418), read-out: MIC
Structure (SMILES),MIC (S. aureus (Oxford); [1]) [µg/mL],MIC (E. coli (NCTC 10418); E. coli (NCTC 10418)) [µg/mL],MIC (S. aureus (Oxford)) [µg/mL],MIC (E. coli (NCTC 10418); [2]) [µg/mL]
"CO/N=C(\C(=O)N[C@@H]1C(=O)N2C(C(=O)O)=C(OC3C=C(C)C(=O)O3)CS[C@H]12)c1csc(N)n1 (single isomer, unassigned) [3 Isomer (a)]",4,0.5,,
"CO/N=C(\C(=O)N[C@@H]1C(=O)N2C(C(=O)O)=C(OC3C=C(C)C(=O)O3)CS[C@H]12)c1csc(N)n1 (single isomer, unassigned) [3 Isomer (b)]",,0.12,4,
"CO/N=C(\C(=O)N[C@@H]1C(=O)N2C(C(=O)[O-])=C(SCC3=CC(=O)OC3)CS[C@H]12)c1csc(N)n1.[Na+] [Example 1, Sodium 7β-[2-(2-Aminothiazol-4-yl)-2-(Z)-methoxyiminoacetamido]-3-(2,5-dihydro-2-oxofuran-4-ylmethylthio)ceph-3-em-4-carboxylate]",0.25,,,< 0.03
"CO/N=C(\C(=O)N[C@@H]1C(=O)N2C(C(=O)O)=C(SC3=CC(=O)OC3)CS[C@H]12)c1csc(N)n1 [Example 2, Sodium 7β-[2-(2-Aminothiazol-4-yl)-2-(Z)-methoxyiminoacetamido]-3-(2,5-dihydro-2-oxofuran-4-ylthio)ceph-3-em-4-carboxylate]",1,,,0.12
"CO/N=C(\C(=O)N[C@@H]1C(=O)N2C(C(=O)O)=C(Sc3cc(C)oc(=O)c3)CS[C@H]12)c1csc(N)n1 [Example 4, Sodium 7β-[2-(2-Aminothiazol-4-yl)-2-(Z)-methoxyiminoacetamido]-3-(6-methyl-2-oxo-2H-pyran-4-ylthio)ceph-3-em-4-carboxylate]",1,,,0.25
"CO/N=C(\C(=O)N[C@@H]1C(=O)N2C(C(=O)[O-])=C(CSC3=CC(=O)OC3)CS[C@H]12)c1csc(N)n1.[Na+] [Example 5, Sodium 7β-[2-(2-Aminothiazol-4-yl)-2-(Z)-methoxyiminoacetamido]-3-(2,5-dihydro-2-oxofuran-4-ylthiomethyl)ceph-3-em-4-carboxylate]",0.25,,,< 0.03
"Nc1nc(/C(=N/O)C(=O)N[C@@H]2C(=O)N3C(C(=O)O)=C(CSC4=CC(=O)OC4)CS[C@H]23)cs1 [Example 6, 7β-[2-(2-Aminothiazol-4-yl)-2-(Z)-hydroxyiminoacetamido]-3-(2,5-dihydro-2-oxofuran-4-ylthiomethyl)ceph-3-em-4-carboxylic acid]",0.12,,,< 0.03
"CO/N=C(\C(=O)N[C@@H]1C(=O)N2C(C(=O)[O-])=C(SCC3=CCOC3=O)CS[C@H]12)c1csc(N)n1.[Na+] [Example 7, Sodium 7β-[2-(2-Aminothiazol-4-yl)-2-(Z)-methoxyiminoacetamido]-3-(2,5-dihydro-2-oxofuran-3-ylmethylthio)ceph-3-em-4-carboxylate]",0.5,,,< 0.03
"Nc1nc(/C(=N/O)C(=O)N[C@@H]2C(=O)N3C(C(=O)O)=C(SCC4=CCOC4=O)CS[C@H]23)cs1 [Example 8, 7β-[2-(2-Aminothiazol-4-yl)-2-(Z)-hydroxyiminoacetamido]-3-(2,5-dihydro-2-oxofuran-3-ylmethylthio)ceph-3-em-4-carboxylic acid]",0.25,,,0.12
"CO/N=C(\C(=O)N[C@@H]1C(=O)N2C(C(=O)[O-])=C(SC3CCOC3=O)CS[C@H]12)c1csc(N)n1.[Na+] (stereo partly drawn) [Example 9, Sodium 7β-[2-(2-Aminothiazol-4-yl)-2-(Z)-methoxyiminoacetamido]-3-(2-oxotetrahydrofuran-3-ylthio)ceph-3-em-4-carboxylate]",2,,,0.12
"Nc1nc(/C(=N/O)C(=O)N[C@@H]2C(=O)N3C(C(=O)O)=C(SCC4=CC(=O)OC4)CS[C@H]23)cs1 [Example 12, 7β-[2-(2-Aminothiazol-4-yl)-2-(Z)-hydroxyiminoacetamido]-3-(2,5-dihydro-2-oxofuran-4-ylmethylthio)ceph-3-em-4-carboxylic acid]",0.25,,,0.12
"CO/N=C(\C(=O)N[C@@H]1C(=O)N2C(C(=O)[O-])=C(CSC3=C(Cl)C(=O)OC3)CS[C@H]12)c1csc(N)n1.[Na+] [Example 13, Sodium 7β-[2-(2-Aminothiazol-4-yl)-2-(Z)-methoxyiminoacetamido]-3-(3-chloro-2,5-dihydro-2-oxofuran-4-ylthiomethyl)ceph-3-em-4-carboxylate]",0.25,,,< 0.03
"CO/N=C(\C(=O)N[C@@H]1C(=O)N2C(C(=O)O)=C(CSc3cc(C)oc(=O)c3)CS[C@H]12)c1csc(N)n1 [Example 14, Sodium 7β-[2-(2-Aminothiazol-4-yl)-2-(Z)-methoxyiminoacetamido]-3-(6-methyl-2-oxo-2H-pyran-4-ylthiomethyl)ceph-3-em-4-carboxylate]",0.5,,,< 0.03
"CO/N=C(\C(=O)N[C@@H]1C(=O)N2C(C(=O)O)=C(CSc3ccoc(=O)c3)CS[C@H]12)c1csc(N)n1 [Example 15, Sodium 7β-[2-(2-Aminothiazol-4-yl)-2-(Z)-methoxyiminoacetamido]-3-(2-oxo-2H-pyran-4-ylthiomethyl)ceph-3-em-4-carboxylate]",0.25,,,< 0.03
"Nc1nc(/C(=N/OCC(=O)O)C(=O)N[C@@H]2C(=O)N3C(C(=O)O)=C(CSC4=CC(=O)OC4)CS[C@H]23)cs1 [Example 16, 7β-[2-(2-Aminothiazol-4-yl)-2-(Z)-carboxymethoxyiminoacetamido]-3-(2,5-dihydro-2-oxofuran-4-ylthiomethyl)ceph-3-em-4-carboxylic acid, disodium salt]",8,,,< 0.06
"Cc1cc(SCC2=C(C(=O)O)N3C(=O)[C@@H](NC(=O)/C(=N\O)c4csc(N)n4)[C@H]3SC2)cc(=O)o1 [Example 17, 7β-[2-(2-Aminothiazol-4-yl)-2-(Z)-hydroxyiminoacetamido]-3-(6-methyl-2-oxo-2H-pyran-4-ylthiomethyl)ceph-3-em-4-carboxylic acid]",0.25,,,0.06
"CO/N=C(\C(=O)N[C@@H]1C(=O)N2C(C(=O)[O-])=C(OCC3=CC(=O)OC3)CS[C@H]12)c1csc(N)n1.[Na+] [Example 22, Sodium 7β-[2-(2-Aminothiazol-4-yl)-2-(Z)-methoxyiminoacetamido]-3-(2,5-dihydro-2-oxofuran-4-ylmethyloxy)ceph-3-em-4-carboxylate]",2,,,0.06

# — US5158946A, “Cephalosporin derivatives and pharmaceutical compositions” (Beecham Group p.l.c., priority 1989, dated 1992)
